According to patent publication US20200222474A1, “COMPOSITIONS AND METHODS FOR INCREASING PHYTOCHEMICAL BIOAVAILABLITY AND BIOACTIVITY” (North Carolina State University, priority 2017, published 2020):

How the values were obtained:
[1] = test system: NCK2424 (ΔLBA0726); assay: Phenotypic growth analysis of deletion mutant (phospho-β-glucosidase); format: cell-based, Lactobacillus acidophilus; conditions: compared with background Δupp strain
Protocol: (§1) Phenotypic growth assays were performed using 1% (v/v) overnight cultures of L. acidophilus strains (Table 2) and other Lactobacillus species (Table 3) grown on SDM supplemented with 1% (w/v) glucose to inoculate 200 μL of SDM supplemented with 1% (w/v) of the examined carbohydrate (0.5% in the case of esculin) in 96-well microplate wells (Corning Costar, Corning, N.Y., USA) in duplicate or triplicate wells, respectively. The microplates were sealed with clear adhesive film, incubated at 37° C. in a Fluostar Optima microplate reader (BMG Labtech, Cary, N.C., USA), and the cell optical density (OD600) was monitored for 30 hours.
Construction of gene deletion mutants. The L. acidophilus NCFM genes LBA0225 and LBA0726, both encoding P-Bgl of glycoside hydrolase family 1 (GH1) enzymes in addition to the LBA0227 and LBA0725 genes encoding an EIIC and an EIICBA components of two PTS systems, respectively, were deleted using the upp-based counterselectable gene replacement system. Briefly, in-frame deletions were constructed by amplifying 650-750 bp of the up- and downstream flanking regions of the deletion targets with two primer pairs (e.g., LBA0225A/LBA0225B and LBA0225C/LBA0225D; Table 4). The resulting purified products were joined by splicing using overlap extension PCR (SOE-PCR63) and amplified to establish the deletion alleles. The SOE-PCR products, that include flanking restriction enzyme sites, were cloned within the BamHI and SacI/EcoRI sites of the pTRK935 integration vector and transformed into E. coli EC101. […]
(§2) To establish the functional significance of these two loci, single deletions of each PTS EII and P-Bgl gene, and a double deletion of both P-Bgl genes were constructed using the upp-based counter-selectable gene replacement system (Table 2) and the growth phenotypes of the mutant strains were analyzed (FIG. 3). […]

[2] = test system: L. helveticus CNRZ32; assay: Phenotypic growth assay (OD600); format: cell-based; conditions: SDM + 1% (w/v) carbohydrate (0.5% esculin), 37° C., 30 hours; corrected to medium without carbohydrate
In short: (§3)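 Carbohydrate utilisation is scored by growing each strain in SDM with 1% (w/v) sole test sugar (esculin 0.5%) at 37° C. and tracking OD600 for 30 hours from a 1% (v/v) glucose-grown overnight inoculum.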

[3] = test system: L. acidophilus LA-1; assay: Phenotypic growth assay (OD600); format: cell-based; conditions: SDM + 1% (w/v) carbohydrate (0.5% esculin), 37° C., 30 hours; corrected to medium without carbohydrate
In short: as §3

[4] = test system: L. reuteri (ATCC 23272, DSM 20016); assay: Phenotypic growth assay (OD600); format: cell-based; conditions: SDM + 1% (w/v) carbohydrate (0.5% esculin), 37° C., 30 hours; corrected to medium without carbohydrate
In short: as §3

[5] = test system: L. crispatus ATCC 33820, DSM 20584; assay: Phenotypic growth assay (OD600); format: cell-based; conditions: SDM + 1% (w/v) carbohydrate (0.5% esculin), 37° C., 30 hours; corrected to medium without carbohydrate
In short: as §3

[6] = test system: L. animalis DSM 20602; assay: Phenotypic growth assay (OD600); format: cell-based; conditions: SDM + 1% (w/v) carbohydrate (0.5% esculin), 37° C., 30 hours; corrected to medium without carbohydrate
In short: as §3

[7] = test system: L. amyloverus ATCC 33620, DSM 20531; assay: Phenotypic growth assay (OD600); format: cell-based; conditions: SDM + 1% (w/v) carbohydrate (0.5% esculin), 37° C., 30 hours; corrected to medium without carbohydrate
In short: as §3

[8] = test system: L. rhanmosus GG (ATCC 53103); assay: Phenotypic growth assay (OD600); format: cell-based; conditions: SDM + 1% (w/v) carbohydrate (0.5% esculin), 37° C., 30 hours; corrected to medium without carbohydrate
In short: as §3

[9] = test system: L. intestinalis Th4, ATCC 49335, DSM 6629; assay: Phenotypic growth assay (OD600); format: cell-based; conditions: SDM + 1% (w/v) carbohydrate (0.5% esculin), 37° C., 30 hours; corrected to medium without carbohydrate
In short: as §3

[10] = test system: L. acidophilus NCFM; assay: Growth of L. acidophilus NCFM on plant glycosides as single carbon source (OD600); format: cell-based, Lactobacillus acidophilus; conditions: for Growth (OD600 max class) of L. acidophilus NCFM: SDM + 1% (w/v) carbohydrate (0.5% esculin), 37° C., 30 hours, corrected to medium without carbohydrate; for OD600 max: single carbon source, 200 μl cultures, 96 microtitre plates, corrected for medium without carbon source
Protocol: For initial growth and gene expression studies, L. acidophilus NCFM was propagated three times in semi-defined medium (SDM) supplemented with either 1% or 0,5% (w/v) of the plant glycoside or carbohydrate (Table 1). For the RNA-seq analysis, cells were harvested by centrifugation (3,220×10 min, 25° C.) in the mid-exponential phase (OD600=0.6-0.8) and stored at −80° C. for subsequent RNA isolation. For the mass spectrometry metabolite analyses, 200 μt samples were taken at 0, 3, 6, 9, 12, and 24 hours of growth; cells were removed by centrifugation; and supernatants were stored at −80° C. for further analysis.
as §1
The growth of L. acidophilus NCFM was evaluated on twelve chemically diverse, nutritionally relevant and/or therapeutically active PGs 1; Table 1). FIG. 1A provides the structures and common sources of plant glycoside substrates described herein. The compounds that support growth of Lactobacillus acidophilus are in green. RI: β-D-Glcp; R2: Gentiobioside (β-D-Glcp-(1,6)-D-Glcp); R3: Rutinoside (α-L-Rhaf-(1,6)-D-Glcp). The graph in FIG. 1B depicts plant glycoside utilization analyzed by mass spectrometry and the growth as the maximum OD600. Due to the low solubility of polydatin, OD600 cannot be used as a growth metric and utilization of this compound is confirmed by the production of lactate as well as a high utilization level based on the metabolite analysis.

[11] = test system: NCK2426 (ΔLBA0225ΔLBA0726); assay: Phenotypic growth analysis of double phospho-β-glucosidase mutant; format: cell-based, Lactobacillus acidophilus; conditions: compared with background Δupp strain
Protocol: as §1
Construction of gene deletion mutants. The L. acidophilus NCFM genes LBA0225 and LBA0726, both encoding P-Bgl of glycoside hydrolase family 1 (GH1) enzymes in addition to the LBA0227 and LBA0725 genes encoding an EIIC and an EIICBA components of two PTS systems, respectively, were deleted using the upp-based counterselectable gene replacement system. […]
as §2

Row | Compound | growth of the ΔLBA0726 mutant (P-Bgl) [1] | Growth (OD600 max class) of L. helveticus CNRZ32 [2] | Growth (OD600 max class) of L. acidophilus LA-1 [3] | Growth (OD600 max class) of L. reuteri (ATCC 23272, DSM 20016) [4] | Growth (OD600 max class) of L. crispatus ATCC 33820, DSM 20584 [5] | Growth (OD600 max class) of L. animalis DSM 20602 [6] | Growth (OD600 max class) of L. amyloverus ATCC 33620, DSM 20531 [7] | Growth (OD600 max class) of L. rhanmosus GG (ATCC 53103) [8] | Growth (OD600 max class) of L. intestinalis Th4, ATCC 49335, DSM 6629 [9] | Growth (OD600 max class) of L. acidophilus NCFM [10] | OD600 max ([10]; growth concentration 1% (w/v)) | growth of the double P-Bgl mutant (LBA0225/LBA0726) [11] | OD600 max ([10]; growth concentration 0.5% (w/v))
1 | N#C[C@H](O[C@@H]1O[C@H](CO[C@@H]2O[C@H](CO)[C@@H](O)[C@H](O)[C@H]2O)[C@@H](O)[C@H](O)[C@H]1O)c1ccccc1 [Amygdalin] | severe reduction in growth | + (“+” signifies 0.3 > OD600 max > 0.1.) | ++ (“++” signifies 0.6 > OD600 max > 0.3.) | − (“−” signifies OD600 max < 0.1.) | − (“−” signifies OD600 max < 0.1.) | − (“−” signifies OD600 max < 0.1.) | − (“−” signifies OD600 max < 0.1.) | +++ (“+++” signifies OD600 max > 0.6.) | − (“−” signifies OD600 max < 0.1.) | + (“+” signifies 0.3 > OD600 max > 0.1.) | 0.3 | abolished | 
2 | O=c1ccc2cc(O[C@@H]3O[C@H](CO)[C@@H](O)[C@H](O)[C@H]3O)c(O)cc2o1 [Esculin] |  | − (“−” signifies OD600 max < 0.1.) | +++ (“+++” signifies OD600 max > 0.6.) | − (“−” signifies OD600 max < 0.1.) | ++ (“++” signifies 0.6 > OD600 max > 0.3.) | + (“+” signifies 0.3 > OD600 max > 0.1.) | − (“−” signifies OD600 max < 0.1.) | ++ (“++” signifies 0.6 > OD600 max > 0.3.) | − (“−” signifies OD600 max < 0.1.) | ++ (“++” signifies 0.6 > OD600 max > 0.3.) |  |  | 0.4
3 | OCc1ccccc1O[C@@H]1O[C@H](CO)[C@@H](O)[C@H](O)[C@H]1O [Salicin] |  | − (“−” signifies OD600 max < 0.1.) | +++ (“+++” signifies OD600 max > 0.6.) | − (“−” signifies OD600 max < 0.1.) | +++ (“+++” signifies OD600 max > 0.6.) | + (“+” signifies 0.3 > OD600 max > 0.1.) | − (“−” signifies OD600 max < 0.1.) | +++ (“+++” signifies OD600 max > 0.6.) | − (“−” signifies OD600 max < 0.1.) | +++ (“+++” signifies OD600 max > 0.6.) | 0.8 |  | 
